# Where “and” joins values, the source holds several entries; their conditions need not be identical. Equal values may be shown once.
# Columns and labels:
# Assay in all cases: radiometric filter-binding kinase assay, Kinase HotSpot
# Details in all cases: compound 0.5 µM; ATP 10 µM
# [1] = biological target: MAP3K11 (human) (UniProt Q16584)
# [2] = biological target: MAPK3 (human) (UniProt P27361)
# [3] = biological target: CDK5 CDK5R1 p35 (human) (UniProt Q00535+Q15078)
# [4] = biological target: CSNK1D (human) (UniProt P48730)
# Sequence of CSNK1D (human) (P48730 whole entry, looked up): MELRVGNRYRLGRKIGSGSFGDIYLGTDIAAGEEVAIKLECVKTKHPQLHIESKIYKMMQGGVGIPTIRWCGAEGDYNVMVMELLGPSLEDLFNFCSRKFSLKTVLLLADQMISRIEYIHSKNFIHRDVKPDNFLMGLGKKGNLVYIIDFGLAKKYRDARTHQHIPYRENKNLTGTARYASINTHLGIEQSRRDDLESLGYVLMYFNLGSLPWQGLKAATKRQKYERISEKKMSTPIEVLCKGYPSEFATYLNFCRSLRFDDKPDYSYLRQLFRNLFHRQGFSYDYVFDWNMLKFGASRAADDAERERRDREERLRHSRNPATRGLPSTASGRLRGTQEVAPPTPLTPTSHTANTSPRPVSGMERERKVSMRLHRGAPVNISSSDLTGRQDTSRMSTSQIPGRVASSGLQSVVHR
# [5] = biological target: FYN (human) (UniProt P06241)
# [6] = biological target: NTRK3 (human) (UniProt Q16288)
# [7] = biological target: MARK2 (human) (UniProt Q7KZI7)
# [8] = biological target: PAK7 (human) (UniProt Q9P286)
# [9] = biological target: KIT (human) (UniProt P10721)
# [10] = biological target: PDPK1 (human) (UniProt O15530)
# [11] = biological target: CSNK1G2 (human) (UniProt P78368)
# [12] = biological target: NTRK2 (human) (UniProt Q16620)
# Sequence of NTRK2 (human) (Q16620 whole entry, looked up): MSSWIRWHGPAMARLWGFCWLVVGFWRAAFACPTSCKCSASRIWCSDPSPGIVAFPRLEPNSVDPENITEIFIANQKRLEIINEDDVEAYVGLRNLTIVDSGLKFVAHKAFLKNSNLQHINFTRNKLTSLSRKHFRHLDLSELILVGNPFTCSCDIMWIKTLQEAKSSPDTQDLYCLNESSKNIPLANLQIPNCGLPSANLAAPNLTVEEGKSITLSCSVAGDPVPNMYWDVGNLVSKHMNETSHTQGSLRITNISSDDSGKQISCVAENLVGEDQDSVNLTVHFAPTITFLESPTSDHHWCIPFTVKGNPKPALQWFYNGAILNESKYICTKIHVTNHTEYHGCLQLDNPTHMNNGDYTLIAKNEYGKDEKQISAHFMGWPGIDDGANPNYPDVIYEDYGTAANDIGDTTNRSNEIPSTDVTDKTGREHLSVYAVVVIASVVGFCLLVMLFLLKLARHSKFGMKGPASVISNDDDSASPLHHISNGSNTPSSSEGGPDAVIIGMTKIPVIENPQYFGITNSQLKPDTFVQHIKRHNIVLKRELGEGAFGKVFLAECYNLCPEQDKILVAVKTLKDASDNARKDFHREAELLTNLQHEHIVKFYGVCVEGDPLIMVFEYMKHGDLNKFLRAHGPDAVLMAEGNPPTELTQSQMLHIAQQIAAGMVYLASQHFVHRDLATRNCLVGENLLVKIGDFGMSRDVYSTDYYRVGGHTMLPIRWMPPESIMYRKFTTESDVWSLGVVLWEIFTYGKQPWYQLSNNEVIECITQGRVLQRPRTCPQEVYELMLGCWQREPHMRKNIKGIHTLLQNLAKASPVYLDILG
# [13] = biological target: NEK6 (human) (UniProt Q9HC98)
# [14] = biological target: PRKCZ (human) (UniProt Q05513)
# [15] = biological target: IKBKE (human) (UniProt Q14164)
# [16] = biological target: PKN2 (human) (UniProt Q16513)
# [17] = biological target: EGFR (human) (UniProt P00533)
# [18] = biological target: SGK3 (human) (UniProt Q96BR1)
# [19] = biological target: TBK1 (human) (UniProt Q9UHD2)
# [20] = biological target: LYN (human) (UniProt P07948)
# Sequence of LYN (human) (P07948 whole entry, looked up): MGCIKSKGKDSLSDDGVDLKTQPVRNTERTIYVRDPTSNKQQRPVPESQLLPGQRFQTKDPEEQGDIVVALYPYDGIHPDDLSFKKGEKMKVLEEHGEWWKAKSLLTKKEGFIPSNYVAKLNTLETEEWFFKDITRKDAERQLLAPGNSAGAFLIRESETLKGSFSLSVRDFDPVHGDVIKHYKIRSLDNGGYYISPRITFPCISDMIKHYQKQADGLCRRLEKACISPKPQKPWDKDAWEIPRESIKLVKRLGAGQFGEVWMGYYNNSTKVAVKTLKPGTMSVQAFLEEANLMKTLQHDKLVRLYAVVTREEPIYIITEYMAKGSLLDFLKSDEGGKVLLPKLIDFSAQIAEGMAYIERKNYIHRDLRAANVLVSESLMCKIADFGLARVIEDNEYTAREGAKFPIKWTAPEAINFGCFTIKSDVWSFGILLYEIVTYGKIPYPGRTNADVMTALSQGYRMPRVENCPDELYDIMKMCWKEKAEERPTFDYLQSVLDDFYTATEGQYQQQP
# [21] = biological target: ITK (human) (UniProt Q08881)
# [22] = biological target: PKN1 (human) (UniProt Q16512)
# Sequence of PKN1 (human) (Q16512 whole entry, looked up): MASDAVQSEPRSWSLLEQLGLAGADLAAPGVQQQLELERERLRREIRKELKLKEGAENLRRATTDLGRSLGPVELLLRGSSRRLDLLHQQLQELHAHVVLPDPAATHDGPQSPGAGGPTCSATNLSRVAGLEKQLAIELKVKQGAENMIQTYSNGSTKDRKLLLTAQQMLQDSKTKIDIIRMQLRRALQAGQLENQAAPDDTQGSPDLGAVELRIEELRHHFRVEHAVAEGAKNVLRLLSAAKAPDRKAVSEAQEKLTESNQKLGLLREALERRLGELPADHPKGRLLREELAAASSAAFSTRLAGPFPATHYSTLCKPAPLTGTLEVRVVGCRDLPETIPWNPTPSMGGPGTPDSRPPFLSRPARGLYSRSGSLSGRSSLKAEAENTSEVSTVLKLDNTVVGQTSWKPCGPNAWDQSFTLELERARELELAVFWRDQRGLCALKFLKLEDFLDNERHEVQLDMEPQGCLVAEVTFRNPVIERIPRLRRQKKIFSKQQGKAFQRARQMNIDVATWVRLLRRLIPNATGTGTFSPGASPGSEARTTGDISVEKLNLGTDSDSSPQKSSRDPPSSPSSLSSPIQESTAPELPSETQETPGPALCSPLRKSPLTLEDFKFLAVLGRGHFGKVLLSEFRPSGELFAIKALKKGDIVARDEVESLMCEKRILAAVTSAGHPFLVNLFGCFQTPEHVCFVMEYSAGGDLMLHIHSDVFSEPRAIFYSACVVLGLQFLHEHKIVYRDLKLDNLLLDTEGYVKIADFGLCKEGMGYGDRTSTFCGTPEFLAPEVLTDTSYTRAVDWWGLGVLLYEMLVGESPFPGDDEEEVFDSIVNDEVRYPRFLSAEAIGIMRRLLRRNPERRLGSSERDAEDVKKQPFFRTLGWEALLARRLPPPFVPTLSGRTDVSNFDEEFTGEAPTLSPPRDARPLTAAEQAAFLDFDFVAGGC
# [23] = biological target: PAK4 (human) (UniProt O96013)
# [24] = biological target: STK39 (human) (UniProt Q9UEW8)
# [25] = biological target: ERBB4 (human) (UniProt Q15303)
# [26] = biological target: LIMK1 (human) (UniProt P53667)
# Sequence of LIMK1 (human) (P53667 whole entry, looked up): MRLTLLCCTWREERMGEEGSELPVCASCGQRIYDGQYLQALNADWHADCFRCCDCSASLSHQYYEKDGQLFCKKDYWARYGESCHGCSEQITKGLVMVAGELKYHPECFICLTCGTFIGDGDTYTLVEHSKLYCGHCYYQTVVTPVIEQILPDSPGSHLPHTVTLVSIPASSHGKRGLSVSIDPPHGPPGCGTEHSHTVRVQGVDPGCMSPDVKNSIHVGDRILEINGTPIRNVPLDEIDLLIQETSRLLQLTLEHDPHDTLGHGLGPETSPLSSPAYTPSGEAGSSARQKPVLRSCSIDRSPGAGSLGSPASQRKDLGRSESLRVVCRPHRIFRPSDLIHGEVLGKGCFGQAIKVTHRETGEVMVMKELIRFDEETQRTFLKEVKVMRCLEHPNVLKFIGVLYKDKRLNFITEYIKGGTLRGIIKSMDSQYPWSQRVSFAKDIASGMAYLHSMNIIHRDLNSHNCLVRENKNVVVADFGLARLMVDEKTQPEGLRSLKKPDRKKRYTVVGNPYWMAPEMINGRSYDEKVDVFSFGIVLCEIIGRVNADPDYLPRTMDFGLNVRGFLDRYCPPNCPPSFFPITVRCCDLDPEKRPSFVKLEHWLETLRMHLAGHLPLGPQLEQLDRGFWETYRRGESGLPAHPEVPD
# [27] = biological target: DAPK3 (human) (UniProt O43293)
# [28] = biological target: DAPK2 (human) (UniProt Q9UIK4)
# [29] = biological target: NEK9 (human) (UniProt Q8TD19)
# Sequence of NEK9 (human) (Q8TD19 whole entry, looked up): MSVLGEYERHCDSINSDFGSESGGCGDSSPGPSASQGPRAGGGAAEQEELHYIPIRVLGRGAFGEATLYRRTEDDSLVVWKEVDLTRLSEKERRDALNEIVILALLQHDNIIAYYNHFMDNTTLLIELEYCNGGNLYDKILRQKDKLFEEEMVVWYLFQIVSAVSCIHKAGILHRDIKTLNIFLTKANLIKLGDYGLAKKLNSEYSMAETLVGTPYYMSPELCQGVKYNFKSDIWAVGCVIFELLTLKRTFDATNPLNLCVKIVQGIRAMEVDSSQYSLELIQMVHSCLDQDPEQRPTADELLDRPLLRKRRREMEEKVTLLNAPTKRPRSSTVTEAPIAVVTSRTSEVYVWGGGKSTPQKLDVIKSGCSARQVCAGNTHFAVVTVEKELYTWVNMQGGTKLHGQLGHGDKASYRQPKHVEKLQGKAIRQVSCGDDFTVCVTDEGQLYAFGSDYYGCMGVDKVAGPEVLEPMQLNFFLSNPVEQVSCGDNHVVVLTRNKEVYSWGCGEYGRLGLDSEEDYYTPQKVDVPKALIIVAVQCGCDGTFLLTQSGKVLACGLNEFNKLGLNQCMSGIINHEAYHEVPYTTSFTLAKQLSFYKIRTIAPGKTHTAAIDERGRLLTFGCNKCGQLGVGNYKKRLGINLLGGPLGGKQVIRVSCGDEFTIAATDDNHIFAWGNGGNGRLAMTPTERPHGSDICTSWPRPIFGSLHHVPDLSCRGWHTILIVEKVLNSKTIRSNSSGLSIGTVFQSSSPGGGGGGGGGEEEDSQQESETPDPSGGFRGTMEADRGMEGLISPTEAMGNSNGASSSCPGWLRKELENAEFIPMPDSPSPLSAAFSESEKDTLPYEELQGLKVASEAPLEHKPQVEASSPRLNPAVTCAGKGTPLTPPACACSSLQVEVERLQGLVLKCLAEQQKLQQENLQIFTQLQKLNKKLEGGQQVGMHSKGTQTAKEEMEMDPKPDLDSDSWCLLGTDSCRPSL
# [30] = biological target: PRKCA (human) (UniProt P17252)
# [31] = biological target: JAK3 JH1 JH2 (human) (UniProt P52333)
# [32] = biological target: CAMK1D (human) (UniProt Q8IU85)
# [33] = biological target: CDK5 CDK5R1 p25 (human) (UniProt Q00535+Q15078)
# [34] = biological target: DMPK (human) (UniProt Q09013)
# [35] = biological target: ABL1 (human) (UniProt P00519)
# [36] = biological target: MAPK8 (human) (UniProt P45983)
# [37] = biological target: CAMK2G (human) (UniProt Q13555)
# Sequence of CAMK2G (human) (Q13555 whole entry, looked up): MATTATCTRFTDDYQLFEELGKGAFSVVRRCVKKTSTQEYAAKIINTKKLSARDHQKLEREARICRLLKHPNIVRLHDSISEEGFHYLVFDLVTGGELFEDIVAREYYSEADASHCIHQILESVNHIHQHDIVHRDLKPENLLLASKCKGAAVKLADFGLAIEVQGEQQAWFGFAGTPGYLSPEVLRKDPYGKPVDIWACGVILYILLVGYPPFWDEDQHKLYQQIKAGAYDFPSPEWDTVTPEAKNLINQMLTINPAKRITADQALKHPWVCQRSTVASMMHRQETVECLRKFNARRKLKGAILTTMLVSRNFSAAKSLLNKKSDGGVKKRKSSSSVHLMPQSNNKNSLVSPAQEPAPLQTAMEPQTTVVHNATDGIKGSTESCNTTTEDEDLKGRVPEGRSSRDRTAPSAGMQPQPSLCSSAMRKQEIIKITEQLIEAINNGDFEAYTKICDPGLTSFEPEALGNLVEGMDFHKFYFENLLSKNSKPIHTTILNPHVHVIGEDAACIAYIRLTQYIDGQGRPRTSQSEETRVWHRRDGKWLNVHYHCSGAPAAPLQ
# [38] = biological target: PIM3 (human) (UniProt Q86V86)
# [39] = biological target: FGFR1 (human) (UniProt P11362)
# [40] = biological target: TSSK1B (human) (UniProt Q9BXA7)
# [41] = biological target: CDK6 CCND1 (human) (UniProt Q00534+P24385)
# [42] = biological target: PAK3 (human) (UniProt O75914)
compound,measurement,setting,value
c1ccc2c(-c3ccncc3)c[nH]c2c1,residual activity,[1],95.2%
same,residual activity,[2],98.9%
same,residual activity,[3],96%
same,residual activity,[4],105%
same,residual activity,[5],98.7%
same,residual activity,[6],100%
same,residual activity,[7],102%
same,residual activity,[8],93.8%
same,residual activity,[9],93.2%
same,residual activity,[10],96.6%
same,residual activity,[11],95%
same,residual activity,[12],107%
same,residual activity,[13],93.4%
same,residual activity,[14],98.3%
same,residual activity,[15],96.4%
same,residual activity,[16],80.8%
same,residual activity,[17],97.3%
same,residual activity,[18],92.8%
same,residual activity,[19],93.4%
same,residual activity,[20],100% and 102%
same,residual activity,[21],94.8%
same,residual activity,[22],66.4%
same,residual activity,[23],96.7%
same,residual activity,[24],99.8%
same,residual activity,[25],83.7%
same,residual activity,[26],92%
same,residual activity,[27],101%
same,residual activity,[28],108%
same,residual activity,[29],101%
same,residual activity,[30],97.4%
same,residual activity,[31],95.3%
same,residual activity,[32],107%
same,residual activity,[33],92%
same,residual activity,[34],109%
same,residual activity,[35],98.8%
same,residual activity,[36],100%
same,residual activity,[37],92.6%
same,residual activity,[38],103%
same,residual activity,[39],92.7%
same,residual activity,[40],103%
same,residual activity,[41],97.6%
same,residual activity,[42],102%
